US6995159B2, “5-HT receptor ligands and uses thereof” (Pfizer Inc., priority 2001, dated 2006)
Where a name gives a salt, the structure may show the parent alone.

test system: 5-HT2a receptor; assay: Functional assay (FLIPR calcium, Fluo 4-AM) in 5-HT2a expressed cells; type: cell-based; conditions: 5-HT2a expressed NIH 3T3 cells
Method: (§1) Swiss 3T3 cells expressing r-5HT2C, r-5HT2A, h-5HT2C or h-5HT2A receptors are seeded at a density of 12,500 cells/well in 384 well black/clear collagen-coated plates. Forty eight (48) hrs later the cells are loaded with the calcium sensitive dye, Fluo 4-AM (4 μM dissolved in DMSO containing pluronic acid) in serum free DMEM in the presence of probenicid (2.5 mM) for 75 minutes at 37° C. in a CO2 incubator. Unincorporated dye is removed by washing 3 times with a HEPES-buffered saline containing probenicid (2.5 mM) using a Skatron™ cell washer (final volume 30 μL).
(§2) Plates are added to a fluorometric imaging plate reader (FLIPR 384 available from Molecular Devices Corporation) individually and fluorescence measurements are taken every 2 seconds over an 85 seconds period. Test compound additions are made simultaneously to all 384 wells after 20 seconds of baseline recording. Concentration-response curves are generated using Graphpad Prism™ (available from GraphPad Software, Inc., San Diego, Calif.) and agonist efficacies are generated as % of the response to 10 μM 5-HT (considered as 100%). Estimation of antagonist potencies (functional Kis) are generated by measuring inhibition of the test compound response to 5-HT (10 nM for 5-HT2C and 50 nM for 5-HT2A) and applying the Cheng Prusoff equation.
The functional data for the compounds listed in the Examples above utilizing the 5-HT2a expressed NIH 3T3 cells is summarized below.

Row | SMILES | functional mode at 5-HT2a (partial agonist / full antagonist)
1 | COc1cccc(COc2nc(C)cc(N3CCNCC3)n2)c1 [Example 1-AL, 2-(3-Methoxy-benzyloxy)-4-methyl-6-piperazin-1-yl-pyrimidine] | full antagonists
2 | Cl.Clc1cccc(Cl)c1COc1nccc(N2CCNCC2)n1 [Example 1-FF, 2-(2,6-Dichloro-benzyloxy)-4-piperazin-1-yl-pyrimidine, hydrochloride] | full antagonists
3 | Cl.Clc1cccc(COc2nccc(N3CCNCC3)n2)c1Cl [Example 1-GG, 2-(2,3-Dichloro-benzyloxy)-4-piperazin-1-yl-pyrimidine, hydrochloride] | full antagonists
4 | Cl.Clc1cc(Cl)cc(COc2nccc(N3CCNCC3)n2)c1 [Example 1-HH, 2-(3,5-Dichloro-benzyloxy)-4-piperazin-1-yl-pyrimidine, hydrochloride] | full antagonists
5 | Cl.FC(F)(F)Oc1ccccc1COc1nccc(N2CCNCC2)n1 [Example 1-II, 4-Piperazin-1-yl-2-(2-trifluoromethoxy-benzyloxy)-pyrimidine, hydrochloride] | full antagonists
6 | C[C@@H]1CN(c2ccnc(OCc3cccc(Cl)c3)n2)CCN1 [Example 1-MM, 2-(3-Chloro-benzyloxy)-4-[(3R)-methyl-piperazin-1-yl]pyrimidine] | full antagonists
7 | Fc1ccc(C(F)(F)F)c(COc2nccc(N3CCNCC3)n2)c1 [Example 1-PP, 2-(5-Fluoro-2-trifluoromethyl-benzyloxy)-4-piperazin-1-yl-pyrimidine] | full antagonists
8 | Clc1ccc(COc2nccc(N3CCNCC3)n2)cc1Cl [Example 1-S, 2-(3,4-Dichloro-benzyloxy)-4-piperazin-1-yl-pyrimidine] | full antagonists
9 | Fc1ccc(COc2nccc(N3CCNCC3)n2)cc1F [Example 1-U, 2-(3,4-Difluoro-benzyloxy)-4-piperazin-1-yl-pyrimidine] | full antagonists
10 | C[C@H]1CNCCN1c1ccnc(OCc2cc(Cl)ccc2Cl)n1 [Example 1-VV, 2-(2,5-Dichloro-benzyloxy)-4-[(2S)-methyl-piperazin-1-yl]-pyrimidine] | full antagonists
11 | C[C@H]1CNCCN1c1ccnc(OCc2cc(F)ccc2F)n1 [Example 1-WW, 2-(2,5-Difluoro-benzyloxy)-4-[(2S)-methyl-piperazin-1-yl]-pyrimidine] | full antagonists
12 | Cl.Fc1cccc(COc2nccc(N3CCNCC3)n2)c1F [Example 1-Y, 2-(2,3-Difluoro-benzyloxy)-4-piperazin-1-yl-pyrimidine, hydrochloride] | full antagonists
13 | Fc1cc(COc2nccc(N3CCNCC3)n2)cc(F)c1F [Example 1-YY, 4-Piperazin-1-yl-2-(3,4,5-trifluoro-benzyloxy)-pyrimidine] | full antagonists
14 | Fc1ccc(COc2ccnc(N3CCNCC3)n2)cc1 [Example 2-E, 4-(4-Fluoro-benzyloxy)-2-piperazin-1-yl-pyrimidine] | full antagonists
15 | Clc1ccc(COc2ccnc(N3CCNCC3)n2)cc1Cl [Example 2-F, 4-(3,4-Dichloro-benzyloxy)-2-piperazin-1-yl-pyrimidine] | full antagonists
16 | Fc1ccc(COc2ccnc(N3CCNCC3)n2)cc1F [Example 2-G, 4-(3,4-Difluoro-benzyloxy)-2-piperazin-1-yl-pyrimidine] | full antagonists
17 | Cc1ccc(COc2ccnc(N3CCNCC3)n2)cc1C.Cl [Example 2-H, 4-(3,4-Dimethyl-benzyloxy)-2-piperazin-1-yl-pyrimidine, hydrochloride] | full antagonists
18 | Fc1cccc(COc2ccnc(N3CCNCC3)n2)c1F.O=C(O)C(F)(F)F [Example 2-I, 4-(2,3-Difluoro-benzyloxy)-2-piperazin-1-yl-pyrimidine, trifluoroacetate] | full antagonists
19 | Cl.c1ccc(CNc2nccc(N3CCNCC3)n2)cc1 [Example 3-D, Benzyl-(4-piperazin-1-yl-pyrimidin-2-yl)-amine, hydrochloride] | full antagonists
20 | Cl.Clc1cccc(CNc2ccnc(N3CCNCC3)n2)c1 [Example 4-A, (3-Chloro-benzyl)-(2-piperazin-1-yl-pyrimidin-4-yl)-amine, hydrochloride] | full antagonists
21 | Cl.Fc1cccc(CNc2ccnc(N3CCNCC3)n2)c1 [Example 4-B, (3-Fluoro-benzyl)-(2-piperazin-1-yl-pyrimidin-4-yl)-amine, hydrochloride] | full antagonists
22 | Fc1cccc(CNc2ccnc(N3CCNCC3)n2)c1.O=C(O)/C=C/C(=O)O [Example 4-C, (3-Fluoro-benzyl)-(2-piperazin-1-yl-pyrimidin-4-yl)-amine, fumarate] | full antagonists
23 | Cl.c1ccc(CNc2ccnc(N3CCNCC3)n2)cc1 [Example 4-D, Benzyl-(2-piperazin-1-yl-pyrimidin-4-yl)-amine, hydrochloride] | full antagonists
24 | Clc1cccc(COc2nccc(N3CCNCC3)n2)n1 [Example 5-A, 2-(6-Chloro-pyrdin-2-ylmethoxy)-4-piperazin-1-yl-pyrimidine, hydrochloride] | full antagonists

same assay, conditions: at 10 μM; 5-HT2a expressed NIH 3T3 cells

Row | SMILES | 5-HT2a functional activity
25 | C[C@H](Oc1nccc(N2CCNCC2)n1)c1ccccc1 [Example 1-AG, 2-[(1S)-Phenyl-ethoxy]-4-piperazin-1-yl-pyrimidine] | no functional activity
26 | COc1cccc(COc2nc(C)cc(N3CCNCC3)n2)c1 [Example 1-AL, 2-(3-Methoxy-benzyloxy)-4-methyl-6-piperazin-1-yl-pyrimidine] | no functional activity
27 | Cc1cc(N2CCNCC2)nc(OCc2cccc(Oc3ccccc3)c2)n1 [Example 1-D, 4-Methyl-2-(3-phenoxy-benzyloxy)-6-piperazin-1-yl-pyrimidine] | no functional activity
28 | Cc1cc(N2CCNCC2)nc(OCc2cccc(OC(F)(F)F)c2)n1 [Example 1-F, 4-Methyl-6-piperazin-1-yl-2-(3-trifluoromethoxy-benzyloxy)-pyrimidine] | no functional activity
29 | FC(F)(F)c1cc(COc2nccc(N3CCNCC3)n2)cc(C(F)(F)F)c1 [Example 1-QQ, 2-(3,5-Bis-trifluoromethyl-benzyloxy)-4-piperazin-1-yl-pyrimidine] | no functional activity

test system: 5-HT2c receptor; assay: Functional assay (FLIPR calcium, Fluo 4-AM) in 5-HT2c expressed cells; type: cell-based; conditions: 5-HT2c expressed NIH 3T3 cells
Method: as §1, §2
The functional data for the compounds listed in the Examples above utilizing the 5-HT2c expressed NIH 3T3 cells is summarized below.

Row | SMILES | functional mode at 5-HT2c (partial agonist / full antagonist)
30 | Fc1ccc(C(F)(F)F)c(COc2nccc(N3CCNCC3)n2)c1 [Example 1-PP, 2-(5-Fluoro-2-trifluoromethyl-benzyloxy)-4-piperazin-1-yl-pyrimidine] | full antagonists
31 | Clc1ccc(COc2ccnc(N3CCNCC3)n2)cc1Cl [Example 2-F, 4-(3,4-Dichloro-benzyloxy)-2-piperazin-1-yl-pyrimidine] | full antagonists

same assay, conditions: at 10 μM; 5-HT2c expressed NIH 3T3 cells

Row | SMILES | 5-HT2c functional activity
32 | FC(F)(F)c1cc(COc2nccc(N3CCNCC3)n2)cc(C(F)(F)F)c1 [Example 1-QQ, 2-(3,5-Bis-trifluoromethyl-benzyloxy)-4-piperazin-1-yl-pyrimidine] | no 5-HT2c functional activity
33 | CC(Oc1ccnc(N2CCNCC2)n1)c1ccc(Cl)cc1 (stereo not shown) [Example 2-D, 4-[1-(4-Chloro-phenyl)-ethoxy]-2-piperazin-1-yl-pyrimidine] | no 5-HT2c functional activity
34 | Cc1ccc(COc2ccnc(N3CCNCC3)n2)cc1C.Cl [Example 2-H, 4-(3,4-Dimethyl-benzyloxy)-2-piperazin-1-yl-pyrimidine, hydrochloride] | no 5-HT2c functional activity
